Measurements taken from paper PMC5318233 (Cancer letters, 2016).

How the values were obtained:
[1] = target: complex I (NADH-ubiquinone oxidoreductase); type: biochemical
[2] = target: complex III (electron transport chain); type: biochemical

Ki [2]: 32 µM
SMILES: Cc1ccc(Sc2cccc3[nH]c4nc(N)nc(N)c4c23)cc1 [AG311]
Ki [1]: 0.84 µM
